From patent US11746111B2, “Siderophore conjugated pyrazolidinones, and analogues thereof” (YALE UNIVERSITY, priority 2018, dated 2023)
Values after ≈ are worked out from the molar mass of the structure shown. Like-named read-outs stand apart in the source and are kept apart here. One block for each compound: values may come before it.

Legend:
Format in all cases: cell-based
E. coli = test: MIC versus E. coli strains incl. Class B metallo beta lactamases (Table 2); details: Escherichia coli
Text: (§1) Tables 2 and 3 show MIC values of compound 26 (YU253434) and 42 YU253911 versus E. coli and P. Aeruginosa strains containing Class B metallo beta lactamases VIM and NDM compared with Meropenem as a standard.

Pseudomonas aeruginosa = test: MIC versus Pseudomonas aeruginosa strains incl. Class B metallo beta lactamases (Table 3)
Text: as §1

[1] = system: E. coli clinical isolates; test: Microdilution broth MIC, E. coli clinical isolates (Table 1); details: Escherichia coli
Procedure: (§2) Microdilution Broth Minimum Inhibitory Concentrations (MICs)
(§3) MICs were performed in triplicate in cation adjusted Mueller-Hinton (MH) broth 30 according to CLSI guidelines. Firstly, overnight cultures of E. coli and K. pneumoniae clinical isolates were inoculated into 5 ml MH broth to OD600=0.1 and grown to OD600=0.224 (approximately 1-2×10^8 CFU/ml). These cultures were diluted (3 μl+4997 μl MH) and 100 μl inoculated into each well of a 96-well plate containing 100 μl of serial dilutions of compound 26 (YU253434), ampicillin, ceftazidime, or imipenem. The plates were placed in a 37° C. incubator for 18-20 hours and wells checked for growth.

[2] = system: K. pneumoniae clinical isolates; test: Microdilution broth MIC, K. pneumoniae clinical isolates (Table 1); details: Klebsiella pneumoniae, read-out: MIC
Procedure: as §2, §3

[3] = ATCC25822, E. coli isolate ATCC 25822, CLSI costrol
[4] = E. coli isolate AK-114, KPC-3, TEM-18
[5] = E. coli isolate AR-11, CTX-M-15, OxA-1
[6] = E. coli isolate J4245, Michigan
[7] = ATCC27853, P. aeruginosa isolate ATCC 27853, CLSI control
[8] = P. aeruginosa isolate AR-229, OXA-50
[9] = P. aeruginosa isolate AR-230, VIM-2
[10] = P. aeruginosa isolate AR-231, KPC-5
[11] = P. aeruginosa isolate AR-232, OXA-50
[12] = P. aeruginosa isolate AR-245, VIM
[13] = P. aeruginosa isolate AR-249, VIM
[14] = P. aeruginosa isolate AR-254, VIM
[15] = P. aeruginosa isolate AR-270, OXA-50
[16] = P. aeruginosa isolate J4242, UNC-D

- MIC (E. coli; [3]): > 64 µg/mL
- MIC (E. coli; E. coli isolate AA-118, NDM): > 64 µg/mL
- MIC (E. coli; E. coli isolate AA-119, NDM): > 64 µg/mL
- MIC (E. coli; E. coli isolate AA-128, NDM): > 64 µg/mL
- MIC (E. coli; [4]): 2 µg/mL (≈ 2.77 µM)
- MIC (E. coli; E. coli isolate AR-1, KPC-3): > 64 µg/mL
- MIC (E. coli; [5]): 4 µg/mL (≈ 5.55 µM)
- MIC (E. coli; E. coli isolate AR-137, NDM-6): > 64 µg/mL
- MIC (E. coli; E. coli isolate AR-145, NDM): > 64 µg/mL
- MIC (E. coli; E. coli isolate J4244, MN): > 64 µg/mL
- MIC (E. coli; [6]): > 64 µg/mL
- MIC (Pseudomonas aeruginosa; [7]): 0.5 µg/mL (≈ 0.693 µM)
- MIC (Pseudomonas aeruginosa; [8]): 0.5 µg/mL (≈ 0.693 µM)
- MIC (Pseudomonas aeruginosa; [9]): 1 µg/mL (≈ 1.39 µM)
- MIC (Pseudomonas aeruginosa; [10]): 1 µg/mL (≈ 1.39 µM)
- MIC (Pseudomonas aeruginosa; [11]): 0.5 µg/mL (≈ 0.693 µM)
- MIC (Pseudomonas aeruginosa; [12]): 0.5 µg/mL (≈ 0.693 µM)
- MIC (Pseudomonas aeruginosa; [13]): 1 µg/mL (≈ 1.39 µM)
- MIC (Pseudomonas aeruginosa; P. aeruginosa isolate AR-252): 1 µg/mL (≈ 1.39 µM)
- MIC (Pseudomonas aeruginosa; [14]): 2 µg/mL (≈ 2.77 µM)
- MIC (Pseudomonas aeruginosa; [15]): 0.25 µg/mL (≈ 0.347 µM)
- MIC (Pseudomonas aeruginosa; [16]): 0.5 µg/mL (≈ 0.693 µM)
Compound: CC(C)(O/N=C(\C(=O)N[C@H]1CN2CC(C(=O)NCCN3C(=O)c4cc(O)c(O)cc4C3=O)=C(C(=O)O)N2C1=O)c1nc(N)sc1Cl)C(=O)O [Compound 42, (S,Z)-6-(2-(2-amino-5-chlorothiazol-4-yl)-2-(((2-carboxypropan-2-yl)oxy)imino)acetamido)-2-((2-(5,6-dihydroxy-1,3-dioxoisoindolin-2-yl)ethyl)carbamoyl)-5-oxo-6,7-dihydro-1H,5H-pyrazolo[1,2-a]pyrazole-3-carboxylic acid]

Compound: C[C@@H](O)[C@H]1C(=O)N2C(C(=O)O)=C(SCCN=CN)C[C@H]12 [Imipenem]
- MIC ([1]; BAA202, E. coli BAA-202, SHV-1, read-out: MIC): 0.25 µg/mL (≈ 0.835 µM)
- MIC ([1]; E. coli 35218, TEM-1): < 0.125 µg/mL
- MIC ([1]; E. coli LC4, TEM, SHV-12): < 0.125 µg/mL
- MIC ([1]; E. coli LC12, CTX-M-1 grp(15)): 128 µg/mL (≈ 428 µM)
- MIC ([1]; E. coli LC15, CTX-M-9 group, CTX-M-1 grp(15)): < 0.125 µg/mL
- MIC ([1]; E. coli LC33, CTX-M-9 group): < 0.125 µg/mL
- MIC ([1]; E. coli LC38, CTX-M-1 grp(15), PB AmpC (ACT/MIR)): < 0.125 µg/mL
- MIC ([1]; E. coli LC41, TEM (238S), PB AmpC (ACT/MIR), CTX-M-1 grp(15)): < 0.125 µg/mL
- MIC ([1]; E. coli LC77, TEM, KPC, read-out: MIC): 2 µg/mL (≈ 6.68 µM)
- MIC ([1]; E. coli LC81, SHV (238S + 240K), read-out: MIC): < 0.125 µg/mL
- MIC ([1]; E. coli LC91, CTX-M-1 grp(15), CMY (group II)): < 0.125 µg/mL
- MIC ([1]; E. coli LC98, CMY (group II), read-out: MIC): < 0.125 µg/mL
- MIC ([1]; E. coli LC109, CTX-M-9 group, CMY (group II)): < 0.125 µg/mL
- MIC ([1]; E. coli LC111, TEM (164S), read-out: MIC): < 0.125 µg/mL
- MIC ([1]; E. coli LC136, SHV (WT + 238S), read-out: MIC): < 0.125 µg/mL
- MIC ([1]; E. coli Rush24, CMY (group II), read-out: MIC): 0.25 µg/mL (≈ 0.835 µM)
- MIC ([2]; K. pneumoniae 7000063, β-lactamase SHV-18): < 0.125 µg/mL
- MIC ([2]; K. pneumoniae KB390 Quale, TEM-30, TEM-1, KPC-2, SHV-12): 4 µg/mL (≈ 13.4 µM)
- MIC ([2]; K. pneumoniae LC40, CTX-M-1 grp(15), TEM (164S)): 0.25 µg/mL (≈ 0.835 µM)
- MIC ([2]; K. pneumoniae LC56, CTX-M-1 grp(15)): 0.5 µg/mL (≈ 1.67 µM)
- MIC ([2]; K. pneumoniae LC102, SHV-1 (WT + 238S)): < 0.125 µg/mL
- MIC ([2]; K. pneumoniae LC121, SHV-1 (WT + 238S + 240K)): < 0.125 µg/mL
- MIC ([2]; K. pneumoniae Rush23, CTX-M-9 group): < 0.125 µg/mL
- MIC ([2]; K. pneumoniae VA-184, KPC-2, SHV-11, SHV-12): 8 µg/mL (≈ 26.7 µM)
- MIC ([2]; K. pneumoniae VA-267, KPC-3, TEM-1, SHV-11, SHV-12): 4 µg/mL (≈ 13.4 µM)
- MIC ([2]; K. pneumoniae VA-357, KPC-2, SHV-11): 8 µg/mL (≈ 26.7 µM)
- MIC ([2]; K. pneumoniae VA-368, KPC-2, TEM-1, SHV-5, SHV-68): 1 µg/mL (≈ 3.34 µM)
- MIC ([2]; K. pneumoniae VA-384, KPC-2, TEM-1, SHV-11, SHV-12, SHV-14): 32 µg/mL (≈ 107 µM)
- MIC ([2]; K. pneumoniae VA-391, KPC-3, TEM-1, SHV-11, SHV-12, SHV-77): 4 µg/mL (≈ 13.4 µM)
- MIC ([2]; K. pneumoniae VA-398, KPC-3, TEM-1, SHV-11, SHV-12, SHV-27): 1 µg/mL (≈ 3.34 µM)
- MIC ([2]; K. pneumoniae VA-400, KPC-2, TEM-1, SHV-11, SHV-12): 4 µg/mL (≈ 13.4 µM)
- MIC ([2]; K. pneumoniae VA-406, KPC-2, TEM-1, SHV-11, SHV-12): > 128 µg/mL
- MIC ([2]; K. pneumoniae VA-410, KPC-3, TEM-1, SHV-11): 2 µg/mL (≈ 6.68 µM)

- MIC (E. coli; [3]): ≤ 0.125 µg/mL
- MIC (E. coli; E. coli isolate AA-118, NDM): > 64 µg/mL
- MIC (E. coli; E. coli isolate AA-119, NDM): 64 µg/mL (≈ 167 µM)
- MIC (E. coli; E. coli isolate AA-128, NDM): 64 µg/mL (≈ 167 µM)
- MIC (E. coli; [4]): 4 µg/mL (≈ 10.4 µM)
- MIC (E. coli; E. coli isolate AR-1, KPC-3): 4 µg/mL (≈ 10.4 µM)
- MIC (E. coli; [5]): ≤ 0.125 µg/mL
- MIC (E. coli; E. coli isolate AR-137, NDM-6): > 64 µg/mL
- MIC (E. coli; E. coli isolate AR-145, NDM): > 64 µg/mL
- MIC (E. coli; E. coli isolate J4244, MN): ≤ 0.125 µg/mL
- MIC (E. coli; [6]): ≤ 0.125 µg/mL
- MIC (Pseudomonas aeruginosa; [7]): 1 µg/mL (≈ 2.61 µM)
- MIC (Pseudomonas aeruginosa; [8]): 64 µg/mL (≈ 167 µM)
- MIC (Pseudomonas aeruginosa; [9]): > 64 µg/mL
- MIC (Pseudomonas aeruginosa; [10]): > 64 µg/mL
- MIC (Pseudomonas aeruginosa; [11]): 8 µg/mL (≈ 20.9 µM)
- MIC (Pseudomonas aeruginosa; [12]): 32 µg/mL (≈ 83.4 µM)
- MIC (Pseudomonas aeruginosa; [13]): > 64 µg/mL
- MIC (Pseudomonas aeruginosa; P. aeruginosa isolate AR-252): 64 µg/mL (≈ 167 µM)
- MIC (Pseudomonas aeruginosa; [14]): > 64 µg/mL
- MIC (Pseudomonas aeruginosa; [15]): 4 µg/mL (≈ 10.4 µM)
- MIC (Pseudomonas aeruginosa; [16]): 16 µg/mL (≈ 41.7 µM)
Compound: C[C@@H](O)[C@H]1C(=O)N2C(C(=O)O)=C(S[C@@H]3CN[C@H](C(=O)N(C)C)C3)[C@H](C)[C@H]12 [Meropenem]
